23 compounds from patent publication US9938299B2, “Glycosidase inhibitors and uses thereof” (MERCK SHARP & DOHME CORP., priority 2012, dated 2018) can be followed below.

The target in the assay is T1, human O-GlcNAcase (Homo sapiens, UniProt O60502).
T1 sequence (O60502 1-916): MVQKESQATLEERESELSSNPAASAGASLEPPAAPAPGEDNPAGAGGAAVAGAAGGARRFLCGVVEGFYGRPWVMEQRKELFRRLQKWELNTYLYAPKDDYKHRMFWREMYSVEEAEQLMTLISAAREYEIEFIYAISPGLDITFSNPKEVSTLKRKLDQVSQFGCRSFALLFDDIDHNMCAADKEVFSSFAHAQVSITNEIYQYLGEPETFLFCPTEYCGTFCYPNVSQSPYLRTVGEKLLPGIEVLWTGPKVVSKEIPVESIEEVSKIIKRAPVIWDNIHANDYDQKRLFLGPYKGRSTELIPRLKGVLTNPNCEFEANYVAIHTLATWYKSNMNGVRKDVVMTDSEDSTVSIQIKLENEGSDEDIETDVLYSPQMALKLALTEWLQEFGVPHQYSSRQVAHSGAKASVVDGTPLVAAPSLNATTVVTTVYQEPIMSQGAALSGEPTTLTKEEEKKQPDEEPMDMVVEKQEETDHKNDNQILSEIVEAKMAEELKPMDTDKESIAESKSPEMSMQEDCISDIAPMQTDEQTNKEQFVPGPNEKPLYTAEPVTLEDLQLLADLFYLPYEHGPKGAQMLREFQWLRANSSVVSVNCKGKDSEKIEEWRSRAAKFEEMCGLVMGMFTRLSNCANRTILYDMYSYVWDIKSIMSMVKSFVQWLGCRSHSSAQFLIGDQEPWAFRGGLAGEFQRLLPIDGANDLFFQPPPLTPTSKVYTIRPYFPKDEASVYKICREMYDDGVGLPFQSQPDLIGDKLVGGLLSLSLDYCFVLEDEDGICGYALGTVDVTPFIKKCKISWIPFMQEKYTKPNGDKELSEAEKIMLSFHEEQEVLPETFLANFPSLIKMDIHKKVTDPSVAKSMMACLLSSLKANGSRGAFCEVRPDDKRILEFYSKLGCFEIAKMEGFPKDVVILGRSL
The experiment in a line: Determination of KI values for inhibition of O-GlcNAcase activity (fluorogenic 4-methylumbelliferyl GlcNAc substrate). The following applies: purified human O-GlcNAcase 0.7 nM, 2 mM substrate, pH 7.0, room temperature; Cheng-Prusoff; read-out: Ki. Type of assay: biochemical. How it is done: Assay for Determination of […] for Inhibition of O-GlcNAcase Activity
Experimental procedure for kinetic analyses: Enzymatic reactions were carried out in a reaction containing 50 mM NaH2PO4, 100 mM NaCl and 0.1% BSA (pH 7.0) using 2 mM 4-Methylumbelliferyl N-acetyl-β-D-glucosaminide dihydrate (Sigma M2133) dissolved in ddH2O, as a substrate. The amount of purified human O-GlcNAcase enzyme used in the reaction was 0.7 nM. Test compound of varying concentrations was added to the enzyme prior to initiation of the reaction. The reaction was performed at room temperature in a 96-well plate and was initiated with the addition of substrate. […] The slope of product production was determined for each concentration of compound tested and plotted, using standard curve fitting algorithms for sigmoidal dose response curves. The values for a four parameter logistic curve fit of the data were determined.
As for `CNC1=N[C@@H]2[C@@H](O)[C@H](O)[C@@H](CSc3ccccc3)O[C@@H]2S1` [Example 59, (3aR,5 S,6S,7R,7aR)-2-(methylamino)-5-((phenylthio)methyl)-5,6,7,7a-tetrahydro-3aH-pyrano[3,2-d]thiazole-6,7-diol], the Ki worked out at 1.9 nM.
Regarding `CNC1=N[C@@H]2[C@@H](O)[C@H](O)[C@@H](C(F)(F)CCc3ccc(OC)cc3)O[C@@H]2S1` [Example 10, (3aR,5S,6S,7R,7aR)-5-(1,1-difluoro-3-(4-methoxyphenyl)propyl)-2-(methylamino)-5,6,7,7a-tetrahydro-3aH-pyrano[3,2-d]thiazole-6,7-diol], the Ki turned out to be 69 nM.
To `CNC1=N[C@@H]2[C@@H](O)[C@H](O)[C@@H](C(=O)OC)O[C@@H]2S1` [Example 37, (3aR,5S,6S,7R,7aR)-methyl 6,7-dihydroxy-2-(methylamino)-5,6,7,7a-tetrahydro-3aH-pyrano[3,2-d]-thiazole-5-carboxylate] belongs 68 nM; to `COc1ccc(C/C=C(\[C@H]2O[C@@H]3SC(N(C)C)=N[C@@H]3[C@@H](O)[C@@H]2O)C(F)(F)F)cc1` (single isomer, unassigned) [Example 3], 9.5 nM; to `CNC1=N[C@@H]2[C@@H](O)[C@H](O)[C@@H](CC#N)O[C@@H]2S1` [Example 31, 2-((3aR,5R,6S,7R,7aR)-6,7-dihydroxy-2-(methylamino)-5,6,7,7a-tetrahydro-3aH-pyrano[3,2-d]thiazol-5-yl)acetonitrile], 1.08 nM.
As to `CN(C)C1=N[C@@H]2[C@@H](O)[C@H](O)[C@@H](C(=CCc3ccccc3)C(F)(F)F)O[C@@H]2S1` [Example 19, (3aR,5R,6S,7R,7aR)-2-(dimethylamino)-5-(1,1,1-trifluoro-4-phenylbut-2-en-2-yl)-5,6,7,7a-tetrahydro-3aH-pyrano[3,2-d]thiazole-6,7-diol], the Ki was 20 nM.
Take `CNC(=O)[C@H]1O[C@@H]2SC(NC)=N[C@@H]2[C@@H](O)[C@@H]1O` [Example 35, (3aR,5 S,6S,7R,7aR)-6,7-dihydroxy-N-methyl-2-(methylamino)-5,6,7,7a-tetrahydro-3aH-pyrano[3,2-d]thiazole-5-carboxamide]: the Ki worked out at 845 nM.
For `CN(C)C1=N[C@@H]2[C@@H](O)[C@H](O)[C@@H]([C@@H](O)Cc3ccccc3)O[C@@H]2S1` [Example 21, (3aR,5R,6S,7R,7aR)-2-(dimethylamino)-5-((S)-1-hydroxy-2-phenylethyl)-5,6,7,7a-tetrahydro-3aH-pyrano[3,2-d]thiazole-6,7-diol], the Ki came to 25.6 nM.
The same measure for `CN(C)C1=N[C@@H]2[C@@H](O)[C@H](O)[C@@H]([C@@](O)(CCc3ccccc3)C(F)(F)F)O[C@@H]2S1` (stereo in doubt) [Example 28, (3aR,5S,6S,7R,7aR)-2-(dimethylamino)-5-(1,1,1-trifluoro-2-hydroxy-4-phenylbutan-2-yl)-5,6,7,7a-tetrahydro-3aH-pyrano[3,2-d]thiazole-6,7-diol]: 316 nM; for `COc1ccc(CC[C@@H](O)[C@H]2O[C@@H]3SC(N(C)C)=N[C@@H]3[C@@H](O)[C@@H]2O)cc1` [Example 22, (3aR,5R,6S,7R,7aR)-2-(dimethylamino)-5-((R)-1-hydroxy-3-(4-methoxyphenyl)propyl)-5,6,7,7a-tetrahydro-3aH-pyrano[3,2-d]thiazole-6,7-diol]: 505 nM.
On to `C=C(C)[C@H]1O[C@@H]2SC(NC)=N[C@@H]2[C@@H](O)[C@@H]1O` [Example 14, (3aR,5R,6S,7R,7aR)-2-(methylamino)-5-(prop-1-en-2-yl)-5,6,7,7a-tetrahydro-3aH-pyrano[3,2-d]thiazole-6,7-diol 2,2,2-trifluoroacetate], for which the Ki was 10.1 nM.
To `CN(C)C1=N[C@@H]2[C@@H](O)[C@H](O)[C@@H](C(O)(CCc3ccccc3)C(F)(F)F)O[C@@H]2S1` (stereo in doubt) [Example 27, (3aR,5S,6S,7R,7aR)-2-(dimethylamino)-5-((S)-1,1,1-trifluoro-2-hydroxy-4-phenylbutan-2-yl)-5,6,7,7a-tetrahydro-3aH-pyrano[3,2-d]thiazole-6,7-diol] belongs 0.92 nM; to `CNC1=N[C@@H]2[C@@H](O)[C@H](O)[C@@H]([C@H](CCc3ccc(OC)cc3)C(F)(F)F)O[C@@H]2S1` [Example 18, (3aR,5R,65,7R,7aR)-2-(methylamino)-5-(1,1,1-trifluoro-4-(4-methoxyphenyl)butan-2-yl)-5,6,7,7a-tetrahydro-3aH-pyrano[3,2-d]thiazole-6,7-diol], 1.1 nM; to `C#C[C@H]1O[C@@H]2SC(NCC)=N[C@@H]2[C@@H](O)[C@@H]1O` [Example 57, (3aR,5R,6S,7R,7aR)-2-(ethylamino)-5-ethynyl-5,6,7,7-tetrahydro-3aH-pyrano[3,2-d]thiazole-6,7-diol], 837 nM.
The same measure for `CNC1=N[C@@H]2[C@@H](O)[C@H](O)[C@@H](CCC(=O)OC)O[C@@H]2S1` [Example 12, methyl 3-((3aR,5R,6S,7R,7aR)-6,7-dihydroxy-2-(methylamino)-5,6,7,7a-tetrahydro-3aH-pyrano[3,2-d]thiazol-5-yl)propanoate]: 22 nM.
With `COc1ccc(CC[C@@H]([C@H]2O[C@@H]3SC(N(C)C)=N[C@@H]3[C@@H](O)[C@@H]2O)C(F)(F)F)cc1` (single isomer, unassigned) [Example 2], the inhibition constant Ki was 1.6 nM.
Regarding `CNC1=N[C@@H]2[C@@H](O)[C@H](O)[C@@H](CS(=O)(=O)c3ccccc3)O[C@@H]2S1` [Example 60, (3aR,5 S,6S,7R,7aR)-2-(methylamino)-5-((phenylsulfonyl)methyl)-5,6,7,7a-tetrahydro-3 aH-pyrano[3,2-d]thiazole-6,7-diol], the Ki came out at 75 nM.
Take `CNC(=O)CC[C@H]1O[C@@H]2SC(N(C)C)=N[C@@H]2[C@@H](O)[C@@H]1O` [Example 13, 3-((3aR,5R,6S,7R,7aR)-2-(dimethylamino)-6,7-dihydroxy-5,6,7,7a-tetrahydro-3aH-pyrano[3,2-d]thiazol-5-yl)-N-methylpropanamide]: the Ki worked out at 100 nM.
As to `CN(C)C1=N[C@@H]2[C@@H](O)[C@H](O)[C@@H](C(C)(C)Cl)O[C@@H]2S1` [Example 56, (3aR,5S,6S,7R,7aR)-5-(2-chloropropan-2-yl)-2-(dimethylamino)-5,6,7,7a-tetrahydro-3aH-pyrano[3,2-d]thiazole-6,7-diol], the Ki is 207 nM.
With `CCN(CC)C(=O)[C@H]1O[C@@H]2SC(NC)=N[C@@H]2[C@@H](O)[C@@H]1O` [Example 45, (3aR,5S,6S,7R,7aR)-N,N-diethyl-6,7-dihydroxy-2-(methylamino)-5,6,7,7a-tetrahydro-3aH-pyrano[3,2-d]thiazole-5-carboxamide], the Ki was found to be 2500 nM.
As for `CNC1=N[C@@H]2[C@@H](O)[C@H](O)[C@@H]([C@H](O)CCc3ccc(OC)cc3)O[C@@H]2S1` (single isomer, unassigned) [Example 6], the Ki was found to be 139 nM.
`CCNC(=O)[C@H]1O[C@@H]2SC(NCC)=N[C@@H]2[C@@H](O)[C@@H]1O` [Example 50, (3aR,5S,6S,7R,7aR)-N-ethyl-2-(ethylamino)-6,7-dihydroxy-5,6,7,7a-tetrahydro-3aH-pyrano[3,2-d]thiazole-5-carboxamide]: the Ki turned out to be 2880 nM.
The same measure for `CNC1=N[C@@H]2[C@@H](O)[C@H](O)[C@@H]([C@@](O)(CCc3ccc(OC)cc3)C(F)(F)F)O[C@@H]2S1` (single isomer, unassigned) [Example 9]: 24 nM.

The Ki is the dissociation constant of the complex between target and ligand, obtained from inhibition or displacement.
